Assay: Ex vivo release of therapeutic agent from insert into phosphate buffer, UV scanning spectrophotometer
Assay type: physicochemical
Settings: drug 20%, phosphate buffer pH 7, 37° C.
Description: Ocular Daily Wear is defined by FDA Class II CFR 866.5925 products currently indicated for ocular use and sclera tissue contact.
To begin testing, a UV scanning spectrophotometer concentration calibration curve for the therapeutic agent was established. The insert was prepared to the specification in the particular Table, and the time duration sample plan for measurement was determined. The insert was weighed to establish T=0. The insert was immersed in phosphate buffer of a fixed constant volume. A mean body temperature of 37° C. (e.g., from about 36.5° C. to about 37.5° C.) was simulated for the identified time interval. The insert was transferred and immersed at the end of each time period into a new phosphate buffer test container. The simulated mean 37° C.-body temperature was continued to next time interval. The UV scanning spectrophotometer data was generated for each time interval sample. The release rate was calculated versus time for the therapeutic agent, and graphical plots of the data were generated.

[1] = Table 8, Rod, 2 Component: EVA (40% vinyl acetate) 80%, no PEO
[2] = Table 8, In Device, 3 Component: EVA (40% vinyl acetate) 40%, PEO 40%
[3] = Table 9, In Device, 3 Component: EVA (40% vinyl acetate) 40%, PEO 40%

Compound	1 Day % Release [1] [%]	1 Day % Release [2] [%]	2 Day % Release [2] [%]	1 Day % Release (Table 8, In Device, 3 Component: EVA (40% vinyl acetate) 40%, PEO 40%, listed as dexamethasone phosphate) [%]	1 Day % Release [3] [%]	2 Day % Release [3] [%]
CC(=O)OCC(=O)[C@@]1(O)[C@H](C)C[C@H]2[C@@H]3CCC4=CC(=O)C=C[C@]4(C)[C@@]3(F)[C@@H](O)C[C@@]21C [Dexamethasone 21 Acetate]	1.89	–	–	–	–	–
C[C@@H]1C[C@H]2[C@@H]3CCC4=CC(=O)C=C[C@]4(C)[C@@]3(F)[C@@H](O)C[C@]2(C)[C@@]1(O)C(=O)COP(=O)(O)O [Dexamethasone Phosphate]	3.39	82.7	85.3	82.7	–	–
CN(C)CC/C=C1/c2ccccc2COc2ccc(CC(=O)O)cc21 [Olopatadine FB, Olopatadine]	–	–	–	–	35	43
